{"source": "patent US5498632A", "about": "“Esters of acyl carnitines with long-chain aliphatic alcohols and pharmaceutical compositions containing same having antibacterial activity” (Sigma-Tau Industrie Farmaceutiche Riunite S.p.A., priority 1992, dated 1996)", "key": {"mice": {"tested_on": "mice", "experiment": "Assessment of behaviour and mortality in mice (Irwin's method)", "set-up": "species or system mouse (male Crl:(CD-1)(ICR)BR)", "details": "mouse, in vivo, po", "procedure": "(§1) The assessment of normal behaviour in mice was carried out following S. Irwin's method (Psychopharmacologia, 13, 222 [1968]). This method allows alterations in some behavioural, neurophysiologic and neurovegetative parameters to be detected, which are directly observable by the researcher. The study was conducted using male Crl:(CD-1)(ICR)BR mice (Charles River--Italy) weighing 22-25 g, following oral administration of the compounds suspended in carboxymethylcellulose (0.5% by weight in H2 O) to groups of 4 animals/dose.\n(§2) The animals were continously kept under observation for five hours following treatment and twice a day in the subsequent five days. Mortality was also observed during the overall test period."}, "[1]": {"experiment": "Assessment of behaviour and mortality in mice (Irwin's method)", "set-up": "species or system mouse (male Crl:(CD-1)(ICR)BR)", "details": "mouse, in vivo; oral, dose 1000, 4 animals/dose", "procedure": "as §1, §2"}, "[2]": {"tested_on": "H. pylori planktonic cells (NCTC 11637)", "experiment": "Bactericidal effect against H. pylori planktonic cells", "type": "cell-based, Helicobacter pylori", "from_the_text": "(§3) The investigation aimed at evaluating the difference in susceptibility to ST 722 of planktonic and sessile Helicobacter cells, using in the latter case an \"in vitro\" experimental model, which closely resembled the clinical condition occurring \"in vivo\" in type-B gastritis. We used HEp-2 cells, an epithelial cell line which harbors the same membrane glycolipid receptors for H. pylori as those harbored by the mucous cells of the antral gastric mucosa (MEGRAUD, F., TRIMOULET, P., LAMOULIATTE, H. and BOYANOVA, L., 1991. Bacterial effect of Amoxicillin on \"H. pylori\" in an in vitro model using epithelial cells. Antimicrob. Agents Chemoter. 35 (5): 869-872 and LINGWOOD, C. A., LAW, H. and PELLIZANI, A., 1989. Gastric glycerolipid as a receptor for Campylobacter pylori. Lancet i: 238-241). Additionally, the viability of HEp-2 cells (either infected or not) was evaluated following \"in vitro\" ST 722 treatment. The degree of cytotoxicity was assessed by cytofiuorimetric analysis of Propidium Iodine-stained HEp-2 cells.\n(§4) Helicobacter pylori NCTC 11637.\n(§5) The antibacterial and cytotoxic activity of ST 722 against Helicobacter and HEp-2 cells, respectively, was evaluated by using 3 different ST 722 concentrations, namely 0.1, 1.56 (i.e. the MIC value vs. H. pylori NCTC 11637) and 4 mcg/ml.\n(§6) After making geometric dilutions of the suspensions (0.1 ml of each dilution inoculated onto each plate in triplicate), the plates were incubated for 7 days in a microaerobic atmosphere, and the plates with 30 to 200 CFU were counted.\n(§7) The ST 722 activity against Helicobacter planktonic cells was determined in the same experimental conditions in the absence of HEp-2 cells. Finally, the results are expressed as CFU per flask of each sample with respect to the relevant control (i.e. sessile or planktonic cultures)."}, "[3]": {"tested_on": "H. pylori sessile cells (NCTC 11637)", "experiment": "Bactericidal effect against H. pylori sessile cells (attached to HEp-2)", "type": "cell-based, Helicobacter pylori", "from_the_text": "as §3\nAn HEp-2 epithelial cell line (a human larynx carcinoma) was used to permit the attachment of Helicobacter cells (sessile cells).\nas §4, §5\nA confluent HEp-2 cell culture is prepared, which is obtained after incubating the cell line in tissue culture flasks for 24 hours (37° C., 10% CO2, and ~96% humidity) in Columbia agar medium supplemented with Vitox and 7% defribinated horse serum. The bacteria are first harvested with DMEM medium 10% FCS, and then inoculated onto the HEp-2 cells to obtain a concentration of 5.0×10^6 CFU per flask (i.e. 2.0×10^5 CFU/cm^2).\nBacterial adhesion to the epitelial cells is favored by incubation for 2 hours at 37° C. and 5% CO2. After washing to remove the non attached bacteria. ST 722 is added (5 ml of 3 different concentrations) to the HEp-2 cell culture flasks.\nTwo additional flasks are added with 5 ml medium lacking ST 722, as Helicobacter growth controls.\nAt a predetermined time, the flasks were taken, the medium was discarded, and the cells were washed. The cells were harvested with a rubber policeman in 1 ml of phosphate-buffered saline and disrupted with an Ultraturax homogenizer.\nas §6, §7"}}, "data": [{"smiles": "CCCCCCCCCCCOC(=O)CC(C[N+](C)(C)C)OC(=O)CC(C)C", "note": "[ST 722, Isovaleryl-L-Carnitine Undecyl Ester Chloride]", "values": [{"measurement": "Symptoms", "setting": "mice", "value": "salivation, diarrhoea"}, {"measurement": "mortality at 120 h", "setting": "[1]", "value": 0, "unit": "%"}, {"measurement": "Planktonic cells (CFU per flask)", "setting": "[2]; 3-h contact, 0.1 mcg/ml", "value": "9.50 × 10^5 CFU per flask"}, {"measurement": "Planktonic cells (CFU per flask)", "setting": "[2]; 3-h contact, 1.56 mcg/ml", "value": "3.50 × 10^5 CFU per flask"}, {"measurement": "Planktonic cells (CFU per flask)", "setting": "[2]; 3-h contact, 4.0 mcg/ml", "value": "1.00 × 10^5 CFU per flask"}, {"measurement": "Planktonic cells (CFU per flask)", "setting": "[2]; 24-h contact, 0.1 mcg/ml", "value": "9.00 × 10^7 CFU per flask"}, {"measurement": "Planktonic cells (CFU per flask)", "setting": "[2]; 24-h contact, 1.56 mcg/ml", "value": "4.05 × 10^6 CFU per flask"}, {"measurement": "Planktonic cells (CFU per flask)", "setting": "[2]; 24-h contact, 4.0 mcg/ml, control 5.35 × 10^8", "value": "1.85×10^6 CFU per flask"}, {"measurement": "complete medium sterilization", "setting": "[2]; planktonic cells", "value": "a complete medium sterilization was not attained"}, {"measurement": "Sessile cells (CFU per flask)", "setting": "[3]; 3-h contact, 0.1 mcg/ml", "value": "9.50 × 10^2 CFU per flask"}, {"measurement": "Sessile cells (CFU per flask)", "setting": "[3]; 3-h contact, 1.56 mcg/ml", "value": "9.50 × 10^2 CFU per flask"}, {"measurement": "Sessile cells (CFU per flask)", "setting": "[3]; 3-h contact, 4.0 mcg/ml", "value": "4.50 × 10^2 CFU per flask"}, {"measurement": "Sessile cells (CFU per flask)", "setting": "[3]; 24-h contact, 0.1 mcg/ml", "value": "4.35 × 10^5 CFU per flask"}, {"measurement": "Sessile cells (CFU per flask)", "setting": "[3]; 24-h contact, 1.56 mcg/ml", "value": "1.80 × 10^5 CFU per flask"}, {"measurement": "Sessile cells (CFU per flask)", "setting": "[3]; 24-h contact, 4.0 mcg/ml", "value": "1.75 × 10^5 CFU per flask"}, {"measurement": "killing at 4 µg/mL", "setting": "[3]; Helicobacter pylori, NCTC11637, HEp-2, 3-h contact, 4 mcg/ml, read-out: reduction of number of sessile bacterial cells", "value": "~50", "unit": "%"}]}]}
